# Data from patent publication US11098059B2, “PRMT5 inhibitors” (Merck Sharp & Dohme Corp., priority 2017, dated 2021).
# Read-outs that look alike come from different tables or passages of the source.
# Experiments:
# [1] = biological target: Full-length (FL)-PRMT5-MEP50 enzyme complex (Homo sapiens (Human), UniProt O14744); assay: PRMT5-MEP50 Enzyme Methylation Assay; format: biochemical; for Enzyme Methylation Assay IC50 1: top concentration 100000 nM
# Method: PRMT5-MEP50 Enzyme Methylation Assay
# PRMT5/MEP50 biochemical assay is a direct measurement of the methylation activity of the enzyme complex on a short peptide substrate derived from the N-terminus of H4 histone. The methylation experiment is performed with recombinant protein. The assessment of inhibitory effect (IC50) of small molecules is measured by the effectiveness of the compounds to inhibit this reaction.
# To each well of a white ProxiPlus 384 well-plate, 100 nL of compound (1% DMSO in final assay volume of 10 μL) was dispensed, followed by the addition of 8 μL of 1× assay buffer (50 mM Bicine pH 8.0, 1 mM DTT, 0.004% Tween20, 0.01% BSA) containing 0.5 nM of Full-length (FL)-PRMT5-MEP50 enzyme complex (recombinant proteins from baculovirus-transfected Sf21 cells: FL-PRMT5; MW=[…] and FL-MEP50; MW=38614). Plates were sealed and placed in a 37° C. humidified chamber for 30 minutes pre-incubation with compounds. Subsequently, each reaction was initiated by the addition of 2 μL 1× assay buffer containing 75 nM biotinylated H4R3(Me1) peptide, and 15 μM S-(5′-Adenosyl)-L-Methionine Chloride (SAM). The final reaction in each well of 10 μL consists of 0.5 nM PRMT5-MEP50, 75 nM biotinylated-peptide, and 15 μM SAM. Methylation reactions were allowed to proceed for 150 minutes in a sealed plate at 37° C. Reactions were immediately quenched by the addition of 1 μL of 10% formic acid. Plates were then frozen and shipped to SAMDI™ Tech Inc. to determine the percent conversion from […]. IC50 values were determined by 7 parameters biphasic fit model plotting the percent product conversion vs. (Log10) compound concentrations.
# [2] = biological target: PRMT5 (Homo sapiens (Human), UniProt O14744); assay: PRMT5 Cell Target Engagement (TE) Assay; format: cell-based; conditions: treated 3 days, nuclear SDMA by high content imaging, top concentration 10000 nM
# Source text: PRMT5 Cell Target Engagement (TE) Assay
# The PRMT5 TE assay is a biomarker assay for identifying compounds that inhibit symmetric dimethylation of arginine (SDMA) of PRMT5 substrates. This assay detects symmetrically dimethylated nuclear proteins using high content imaging technology. Detection of the expression of symmetrically dimethylated nucleo proteins is through a mixture of primary rabbit monoclonal antibodies to SDMA (CST 13222), which in turn recognized by an Alexafluor 488 dye-conjugated anti-rabbit IgG secondary antibody. The IN Cell Analyzer 2200 measures nuclear Alexafluor 488 fluorescent dye intensity that is directly related to the level of expression of symmetrically dimethylated nuclear proteins at the single cell level. Nuclear AF488 dye intensities are compared to the mean value for DMSO treated cells […] to report percent of inhibition for each compound-treated well.
# Each well of a BD falcon collagen coated black/clear bottom 384-well plate was seeded with 4000 MCF-7 cells and allowed to attach for 5 hours. Media from cell plate was removed at 0.5 mm above the bottom of the plate and replaced with 30 μL of fresh media containing 1.2× compounds in 0.1% DMSO. Cells were treated for 3 days in 37° C. CO2 incubator. On day 3, cells were fixed with Cytofix, permeablized with 0.4% Triton-X-100/Cytofix, and washed with D-PBS without Ca/Mg. Cells were blocked with Licor Odessey blocking reagent for one hour at room temperature, followed by incubation with anti-SDMA (1:1000) antibody at 4° C. overnight. 1 antibody was removed, followed by three washings with DPBS without Ca/Mg and 0.05% Tween20. Hoechst (5 μg/ml), Cell Mask deep stain (1:2000) and Alexa488-conjugated goat anti-rabbit IgG (2 μg/mL) was added for 1 hour at room temperature. A final washing step (three washes) was performed before sealing plate for imaging on In Cell Analyzer 2200. Images from analyzer were uploaded to Columbus (at WP) for image analysis. IC50 values were determined by 4 parameters robust fit of percent fluorescence units vs. (Log10) compound concentrations.
# [3] = read-out: Enzyme Methylation Assay IC50_1
# [4] = read-out: Enzyme Methylation Assay IC50_2
# [5] = MCF-7 cells, read-out: TE Assay EC50
# Full-length (FL)-PRMT5-MEP50 enzyme complex, sequence (O14744 whole entry): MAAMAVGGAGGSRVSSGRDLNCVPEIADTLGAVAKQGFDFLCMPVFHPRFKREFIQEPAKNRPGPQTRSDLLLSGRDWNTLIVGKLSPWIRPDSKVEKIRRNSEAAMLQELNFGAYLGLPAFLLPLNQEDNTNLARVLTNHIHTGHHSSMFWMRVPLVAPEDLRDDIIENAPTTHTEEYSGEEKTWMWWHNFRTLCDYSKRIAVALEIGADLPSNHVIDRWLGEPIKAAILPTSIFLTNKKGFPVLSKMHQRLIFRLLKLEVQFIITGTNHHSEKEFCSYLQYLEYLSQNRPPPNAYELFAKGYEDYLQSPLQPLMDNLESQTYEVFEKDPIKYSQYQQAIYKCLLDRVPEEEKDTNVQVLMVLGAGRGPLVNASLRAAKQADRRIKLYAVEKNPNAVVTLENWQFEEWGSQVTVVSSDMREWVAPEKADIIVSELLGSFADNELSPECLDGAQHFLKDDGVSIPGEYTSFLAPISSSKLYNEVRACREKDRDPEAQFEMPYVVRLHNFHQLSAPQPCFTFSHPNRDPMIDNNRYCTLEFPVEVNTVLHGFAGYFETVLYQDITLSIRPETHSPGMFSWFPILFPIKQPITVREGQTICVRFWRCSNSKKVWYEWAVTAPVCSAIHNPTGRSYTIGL
# Full-length (FL)-PRMT5-MEP50 enzyme complex, sequence (Q9BQA1 whole entry partner): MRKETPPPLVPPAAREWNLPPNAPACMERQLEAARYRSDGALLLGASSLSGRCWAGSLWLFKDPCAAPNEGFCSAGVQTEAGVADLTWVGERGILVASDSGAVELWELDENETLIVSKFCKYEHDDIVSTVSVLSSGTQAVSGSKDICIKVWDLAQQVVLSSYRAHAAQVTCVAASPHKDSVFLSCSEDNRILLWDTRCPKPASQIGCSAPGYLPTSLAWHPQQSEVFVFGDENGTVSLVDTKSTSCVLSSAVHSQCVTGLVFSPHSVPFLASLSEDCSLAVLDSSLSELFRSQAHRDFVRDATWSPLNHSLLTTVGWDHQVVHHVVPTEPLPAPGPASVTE
# PRMT5, sequence (O14744 whole entry): as the sequence (O14744 whole entry) above
# PRMT5, sequence (Q9BQA1 whole entry partner): as the sequence (Q9BQA1 whole entry partner) above
Structure (SMILES),"IC50 [1, 3] [nM]","IC50 [1, 4] [nM]","EC50 [2, 5] [nM]","EC50 ([2]; TE Assay EC50, MCF-7 cells) [nM]"
"CC[C@H]1CN(C[C@@H](O)[C@@H]2Cc3ccccc3CN2)C(=O)c2ccc(C(=O)N3C4CCC3COC4)cc21 (single isomer, unassigned) [Example 13]",0.36,270,–,30
"CC[C@H]1CN(C[C@@H](O)[C@@H]2Cc3ccccc3CN2)C(=O)c2ccc(C(=O)N3C4CCC3COC4)cc21 (single isomer, unassigned) [Example 14]",0.24,31.7,–,2.52
"CC[C@H]1CN(C[C@@H](O)[C@@H]2Cc3ccccc3CN2)C(=O)c2ccc(C(=O)N3C4CCC3COC4)cc21 (single isomer, unassigned) [Example 15]",9.54,3210,120,–
"CC[C@H]1CN(C[C@@H](O)[C@@H]2Cc3ccccc3CN2)C(=O)c2ccc(C(=O)N3C4CCC3COC4)cc21 (single isomer, unassigned) [Example 16]",17.6,8840,829,–
"CCC1CN(CC(O)[C@@H]2Cc3ccccc3CN2)C(=O)c2ccc(C(=O)N3C4CCC3COC4)cc21 (stereo partly drawn) [Example 12, 4-ethyl-2-{2-hydroxy-2-[(3S)-1,2,3,4-tetrahydroisoquinolin-3-yl]ethyl}-6-(3-oxa-8-azabicyclo[3.2.1]oct-8-ylcarbonyl)-3,4-dihydroisoquinolin-1(2H)-one]",0.63,253,–,29.8
"CC1(C)CN(C[C@@H](O)[C@@H]2Cc3ccccc3CN2)C(=O)c2ccc(C(=O)N3C4CCC3COC4)cc21 [Example 19, 6-(3-oxa-8-azabicyclo[3.2.1]octane-8-carbonyl)-2-((R)-2-hydroxy-2-((S)-1,2,3,4-tetrahydroisoquinolin-3-yl)ethyl)-4,4-dimethyl-3,4-dihydroisoquinolin-1(2H)-one]",0.53,138,–,9.5
"CC1(C)CN(C[C@H](O)[C@@H]2Cc3ccccc3CN2)C(=O)c2ccc(C(=O)N3C4CCC3COC4)cc21 [Example 20, 6-(3-oxa-8-azabicyclo[3.2.1]octane-8-carbonyl)-2-((S)-2-hydroxy-2-((S)-1,2,3,4-tetrahydroisoquinolin-3-yl)ethyl)-4,4-dimethyl-3,4-dihydroisoquinolin-1(2H)-one]",12.9,4070,153,–
"CC1(C)CN(C[C@@H](O)[C@@H]2Cc3ccccc3CN2)C(=O)c2ccc(C(=O)N3[C@@H]4CC[C@H]3C[C@@H](O)C4)cc21 [Example 21, 2-((R)-2-hydroxy-2-((S)-1,2,3,4-tetrahydroisoquinolin-3-yl)ethyl)-6-((1R,3R,5S)-3-hydroxy-8-azabicyclo[3.2.1]octane-8-carbonyl)-4,4-dimethyl-3,4-dihydroisoquinolin-1(2H)-one]",0.52,88.1,–,5.52
"CC1(C)CN(C[C@H](O)[C@@H]2Cc3ccccc3CN2)C(=O)c2ccc(C(=O)N3[C@@H]4CC[C@H]3C[C@@H](O)C4)cc21 [Example 22, 2-((S)-2-hydroxy-2-((S)-1,2,3,4-tetrahydroisoquinolin-3-yl)ethyl)-6-((1R,3S,5S)-3-hydroxy-8-azabicyclo[3.2.1]octane-8-carbonyl)-4,4-dimethyl-3,4-dihydroisoquinolin-1(2H)-one]",50.1,15300,5280,–
"CO[C@H]1C[C@H]2CC[C@@H](C1)N2C(=O)c1ccc2c(c1)C(C)(C)CN(C[C@@H](O)[C@@H]1Cc3ccccc3CN1)C2=O [Example 23, 2-((R)-2-hydroxy-2-((S)-1,2,3,4-tetrahydroisoquinolin-3-yl)ethyl)-6-((1R,3R,5S)-3-methoxy-8-azabicyclo[3.2.1]octane-8-carbonyl)-4,4-dimethyl-3,4-dihydroisoquinolin-1(2H)-one]",0.5,97.7,–,2.14

# Further lines, with some results ahead:
"IC50 [1, 3] [nM]","IC50 [1, 4] [nM]","EC50 [2, 5] [nM]",Structure (SMILES),"EC50 ([2]; TE Assay EC50, MCF-7 cells) [nM]"
5.38,3740,2860,"CC[C@H]1CN(C[C@@H](O)[C@@H]2Cc3ccccc3CN2)C(=O)c2ccc(Br)cc21 (single isomer, unassigned) [Example 1]",–
0.21,172,213,"CC[C@H]1CN(C[C@@H](O)[C@@H]2Cc3ccccc3CN2)C(=O)c2ccc(Br)cc21 (single isomer, unassigned) [Example 2]",–
411,21300,≥ 10000,"CC[C@H]1CN(C[C@@H](O)[C@@H]2Cc3ccccc3CN2)C(=O)c2ccc(Br)cc21 (single isomer, unassigned) [Example 3]",–
45.8,25800,≥ 10000,"CC[C@H]1CN(C[C@@H](O)[C@@H]2Cc3ccccc3CN2)C(=O)c2ccc(Br)cc21 (single isomer, unassigned) [Example 4]",–
465,≥ 100000,≥ 10000,"CC[C@H]1CN(C[C@@H](O)[C@@H]2Cc3ccccc3CN2)C(=O)c2ccc(-c3ncnn3C)cc21 (single isomer, unassigned) [Example 5]",–
3.82,5080,1440,"CC[C@H]1CN(C[C@@H](O)[C@@H]2Cc3ccccc3CN2)C(=O)c2ccc(-c3ncnn3C)cc21 (single isomer, unassigned) [Example 6]",–
0.31,313,143,"CC[C@H]1CN(C[C@@H](O)[C@@H]2Cc3ccccc3CN2)C(=O)c2ccc(-c3ncnn3C)cc21 (single isomer, unassigned) [Example 7]",–
49,28500,7680,"CC[C@H]1CN(C[C@@H](O)[C@@H]2Cc3ccccc3CN2)C(=O)c2ccc(-c3ncnn3C)cc21 (single isomer, unassigned) [Example 8]",–
0.4,374,22.6,"CCC1CN(C[C@@H](O)[C@@H]2Cc3ccccc3CN2)C(=O)c2ccc(-c3ncnn3C3CC3)cc21 (single isomer, unassigned) [Example 10]",–
0.47,422,29.5,"CC1(C)CN(C[C@@H](O)[C@@H]2Cc3ccccc3CN2)C(=O)c2ccc(-c3ncnn3C3CC3)cc21 [Example 9, 6-(1-cyclopropyl-1H-1,2,4-triazol-5-yl)-2-{(2R)-2-hydroxy-2-[(3S)-1,2,3,4-tetrahydroisoquinolin-3-yl]ethyl}-4,4-dimethyl-3,4-dihydroisoquinolin-1(2H)-one]",–
0.29,127,17,"O=C1c2ccc(-c3ncnn3C3CC3)cc2C2(CCC2)CN1C[C@@H](O)[C@@H]1Cc2ccccc2CN1 [Example 11, 6′-(1-cyclopropyl-1H-1,2,4-triazol-5-yl)-2′-{(2R)-2-hydroxy-2-[(3S)-1,2,3,4-tetrahydroisoquinolin-3-yl]ethyl}-2′,3′-dihydro-1′H-spiro[cyclobutane-1,4′-isoquinolin]-1′-one]",–
0.61,368,200,"CC1(C)CN(C[C@@H](O)[C@@H]2Cc3ccccc3CN2)C(=O)c2ccc(Br)cc21 [Example 17, 6-bromo-2-((R)-2-hydroxy-2-((S)-1,2,3,4-tetrahydroisoquinolin-3-yl)ethyl)-4,4-dimethyl-3,4-dihydroisoquinolin-1(2H)-one]",–
225,≥ 100000,≥ 10000,"CC1(C)CN(C[C@H](O)[C@@H]2Cc3ccccc3CN2)C(=O)c2ccc(Br)cc21 [Example 18, 6-bromo-2-((S)-2-hydroxy-2-((S)-1,2,3,4-tetrahydroisoquinolin-3-yl)ethyl)-4,4-dimethyl-3,4-dihydroisoquinolin-1(2H)-one]",–
